Reference: patent US5393747A, “Substituted dibenzoxazepine compounds for the treatment of convulsions, ischemia and other diseases responsive to prostaglandin-E2 antagonists” (G. D. Searle & Co., priority 1993, dated 1995)
“Also recorded” adds a separate entry of the source. Like-named read-outs stand apart in the source and are kept apart here.

Experiments:
[1] = biological target: T1, prostaglandin E2-induced contractions of segments of guinea pig ileum (Cavia porcellus, UniProt A0A286XHJ6); test: Prostaglandin (PGE) Antagonism Assay in guinea pig ileum; design: key to PGE antagonism in guinea pig ileum, activity: Active: A concentration of test compound was determined to be "active" if it produced a dose ratio significantly greater than that obtained in a series of blank treatments; conditions: for Kb: Schild plot, guinea pig ileum, 37° C., read-out: PGE antagonism in guinea pig ileum (pA2) (converted); for PGE antagonism in guinea pig ileum, activity: initial concentration of test compound
T1 construct: The ileums were then quickly removed from the guinea pigs; from tissue; host or cells: guinea pig ileum segments (male albino guinea pigs)
T1 sequence (A0A286XHJ6 1-405): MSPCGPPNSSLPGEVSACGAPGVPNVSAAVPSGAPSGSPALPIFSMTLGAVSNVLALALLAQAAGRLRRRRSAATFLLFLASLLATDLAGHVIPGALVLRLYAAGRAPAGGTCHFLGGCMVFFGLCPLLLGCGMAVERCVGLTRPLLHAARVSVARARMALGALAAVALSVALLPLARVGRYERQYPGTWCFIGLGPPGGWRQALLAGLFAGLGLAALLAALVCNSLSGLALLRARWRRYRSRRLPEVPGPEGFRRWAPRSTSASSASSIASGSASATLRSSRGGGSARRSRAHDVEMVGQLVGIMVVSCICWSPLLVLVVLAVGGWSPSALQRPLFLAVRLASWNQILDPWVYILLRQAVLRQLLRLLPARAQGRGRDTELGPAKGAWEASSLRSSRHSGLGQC
Method: In order to determine the effectiveness of several of the compounds of the present invention ("test compounds") as prostaglandin E2 antagonists,a prostaglandin antagonism assay was conducted, as described below, to determine the ability of these compounds to inhibit prostaglandin E2 -induced contractions of segments of guinea pig ileum.
Male albino guinea pigs weighing 200 to 500 grams were sacrificed by cervical dislocation.
The ileums were then quickly removed from the guinea pigs and placed in a modified Tyrode solution, a solution which is known to those of skill in the art, containing one-half of the usual amount of magnesium ions.
Segments of ileum about 2 cm long were then cut and mounted in a 10-mL tissue bath containing the modified Tyrode solution. The solution was maintained at 37° C. and aerated with a gaseous mixture of 95% oxygen and 5% carbon dioxide.
Submaximal contractions of the ileum segments were then generated by injecting prostaglandin E2 into the bath, and detected isotonically. Data for a control prostaglandin E2 dose response curve plotting concentration of prostaglandin E2 versus number of contractions generated was then obtained by experimentally adjusting the dose of the prostaglandin E2 being injected into the tissue bath, in a manner known by those of skill in the art.
Solutions or suspensions containing an initial amount of a test compound in modified Tyrode solution ("test solutions/suspensions") were then separately substituted for the tissue bath. Each test solution/suspension was then kept in constant contact with the ileum tissue, except for brief periods to drain the bath in preparation for rinsing with fresh test solution/suspension. Different doses of prostaglandin E2 were again injected into the test solutions/suspensions.
A second prostaglandin E2 dose response curve was then generated for PGE2 in the presence of a test compound.
A dose ratio of EC50 doses (that dose of a compound or drug which is necessary to elicit a 50% maximal biological response and, thus, which is necessary to elicit a 50% reduction in the contractions of the guinea pig ileum segments in this assay) was then calculated from the results of each test in a manner known by those of skill in the art. […] Duplicate tests were conducted on each concentration of test compound.
If the initial concentration of a test compound was determined to be "active," then varying concentrations of the test compound were then assayed. As is shown in Table I below, all test compounds analyzed in this assay were determined to be "active" as prostaglandin E2 antagonists at the initial concentration.
The pA2 value (a statistical constant which is a common measure of expressing the potency of a particular drug as a competitive antagonist) was then calculated for each test compound by schild plot calculations, as described by H. O. Schild, "pA, A New Scale for the Measurement of Drug Antagonism," Br. J. Pharmacol, 2, 189 (1947), according to the following mathematical formula: […]
to quantitate the effectiveness of the test compounds as prostaglandin E2 antagonists.
The compounds of the present invention which were tested in this assay, and for which results are presented in Table I, correspond to the particular examples specified in Table I.

mice = test: Writhing Assay (PBQ-induced writhing, analgesic activity); type: in vivo, mouse (Charles River male albino); conditions: for rank order of potency in the Writhing Assay: more potent compounds of the invention
Excerpt: The Writhing Assay is one of the most widely-used experimental procedures for measuring the analgesic activity of different narcotic and nonnarcotic analgesic agents, and involves the continuous, chemically-induced pain of visceral origin to an animal, such as a mouse or rat. [Gyires et al., Arch. int. Pharmacodyn, 267, 131-140 (1984); C. Vander Wende et al., Fed. Proc., 15, 494 (1956); Koster et al., Fed. Proc., 18, 412 (1959); and Witken et al., J. Pharmacol. exp. Ther., 133, 400-408 (1961).] Chemicals which may be used to induce this pain include phenylbenzoquinone (PBQ) and acetic acid. As a result of the chemical irritation to the animal, a characteristic stretching and writhing of the animal (dorsiflexion of the animal's back, extension of its hindlimbs and the strong contraction of its abdominal musculature) will generally occur. […] Drugs which reduce the number of writhes of the animal appear to restore the normal nociceptive threshold of the animal.
Charles River male albino mice, weighing 20 to 30 grams were used in this assay.
Thirty minutes after subcutaneous or intragastric administration to ten mice of either 10 mg or 30 mg per kilogram of body weight of a compound of the present invention ("test compound"), […] of body weight of a 0.025% w/v solution of PBQ was injected intraperitoneally into each mouse. Ten mice which were given saline in place of a test compound of the invention were used as a control group.
Five minutes later, each mouse was individually placed into a glass beaker for observation, and the number of writhes occurring during the following ten-minute period was counted.
A test compound was considered to have produced analgesia in a mouse if, in accordance with the conditions set forth above, and under the test criteria employed for this assay, after the administration of 10 or 30 mg per kilogram of body weight of a compound of the present invention to the mouse, the number of writhes elicited by a mouse injected with PBQ was equal to, or less than, one-half the median number of writhes recorded for the saline-treated control group of mice that day, as described by Taber in "Predictive Value of Analgesic Assays in Mice and Rats," Advances in Biochemical Psychopharmacology, 8, 191 (1974).
The results for the particular compounds of the present invention analyzed in this assay, and discussed in the examples identified below which correspond thereto, are presented in Table I below.
The standard initial screening doses of a test compound employed in this assay were 10 and/or […] of body weight for both routes of administration. If these initial screening doses of the test compound produced analgesia in seven of ten mice, then the effect of additional doses of the test compound on the writhing response was evaluated, and then the ED50 dose was generally calculated. (The slopes of the dose-response curves for all test compounds analyzed were compared as described by Tallarida and Murray, Manual of Pharmacologic Calculations, Page 11 (Springer Verlag, N.Y., 1981)).

[2] = system: isolated smooth muscle preparations; conditions: cited from earlier work
[3] = system: micturition of urethane-anesthetized rats; conditions: cited from earlier work
[4] = po, mouse, intragastric, read-out: PBQ writhing assay ED50, I.G.
[5] = Mus musculus, po, read-out: PBQ writhing assay ED50, I.G.

Kb [1] [µM]	PGE antagonism in guinea pig ileum, activity [1]	SMILES	rank order of potency in the Writhing Assay (mice)	other results
0.794	Active	CS(=O)(=O)NCCC(=O)NNC(=O)N1Cc2ccccc2Oc2ccc(Cl)cc21 [Example 11, 8-chlorodibenz[b,f][1,4]oxazepine-10(11H)-carboxylic acid, 2-[3-[(methylsulfonyl)amino]-1-oxopropyl]hydrazide]	Example 20>Example 27>Example 12>Example 11>Example 28	ED50 (mice; [4]): 9.7 mg/kg; ED50 (mice; sc, mouse, subcutaneous, read-out: PBQ writhing assay ED50, S.C.): 3 mg/kg
2	Active	O=C(CCNS(=O)(=O)c1ccccc1)NNC(=O)N1Cc2ccccc2Oc2ccc(Cl)cc21 [Example 24, 8-chlorodibenz[b,f][1,4]oxazepine-10(11H)-carboxylic acid, 2-[1-oxo-3-[(phenylsulfonyl)amino]propyl]hydrazide]		
		O=C(CP(=O)(O)O)NNC(=O)N1Cc2ccccc2Oc2ccc(Cl)cc21 [Example 28, 8-chlorodibenz[b,f][1,4]oxazepine-10(11H)-carboxylic acid, 2-(phosphonoacetyl)hydrazide]	Example 20>Example 27>Example 12>Example 11>Example 28	ED50 (mice; [4]): 11.2 mg/kg
		CC(=O)NNC(=O)N1Cc2ccccc2Oc2ccc(Cl)cc21 [SC-19220]		inhibition of stimulant actions of prostaglandins [2]: inhibit the stimulant actions of prostaglandins on isolated smooth muscle preparations; bladder capacity [3]: increased the bladder capacity; voiding efficiency of micturition [3]: reduced the voiding efficiency of micturition
2.51	Active	CC(C)(C)OC(=O)NCCC(=O)NNC(=O)N1Cc2ccccc2Oc2ccc(Cl)cc21 [Example 7, 8-chlorodibenz[b,f][1,4]oxazepine-10(11H)-carboxylic acid, 2-[3-[[(1,1-dimethylethoxy)carbonyl]amino]-1-oxopropyl]hydrazide]		
0.0794	Active	O=C(Cc1cccs1)NCCC(=O)NNC(=O)N1Cc2ccccc2Oc2ccc(Cl)cc21 [Example 5, 8-chlorodibenz[b,f][1,4]oxazepine-10(11H)-carboxylic acid, 2-[1-oxo-3-[(2-thienylacetyl)amino]propyl]hydrazide]		effectiveness as prostaglandin E2 antagonist relative to prostaglandin antagonists reported in the literature ([1]; compared with literature prostaglandin E2 antagonists): more than three to four times more effective
0.1	Active	O=C(CCNC(=O)Nc1ccc(C(F)(F)F)cc1)NNC(=O)N1Cc2ccccc2Oc2ccc(Cl)cc21 [Example 10, 8-chlorodibenz[b,f][1,4]oxazepine-10(11H)-carboxylic acid, 2-[1-oxo-3-[[[[(4-trifluoromethyl)phenyl]amino]carbonyl]amino]propyl]hydrazide]		
		CNC(=O)NCCC(=O)NNC(=O)N1Cc2ccccc2Oc2ccc(Cl)cc21 [Example 12, 8-chlorodibenz[b,f][1,4]oxazepine-10(11H)-carboxylic acid, 2-[3-[[(methylamino)carbonyl]amino]-1-oxopropyl]hydrazide]	Example 20>Example 27>Example 12>Example 11>Example 28	ED50 (mice; [4]): 8.4 mg/kg
		O=C(Cc1ccccc1)NNC(=O)N1Cc2ccccc2Oc2ccc(Cl)cc21 [SC-18637]		inhibition of stimulant actions of prostaglandins [2]: inhibit the stimulant actions of prostaglandins on isolated smooth muscle preparations
		CCOP(=O)(O)CC(=O)NNC(=O)N1Cc2ccccc2Oc2ccc(Cl)cc21 [Example 27, 8-chlorodibenz[b,f][1,4]oxazepine-10(11H)-carboxylic acid, 2-[(ethoxyhydroxyphosphinyl)acetyl]hydrazide]	Example 20>Example 27>Example 12>Example 11>Example 28	ED50 (mice; [5]): 8.3 mg/kg

SMILES	Kb [1] [µM]	PGE antagonism in guinea pig ileum, activity [1]	rank order of potency in the Writhing Assay (mice)	other results
CCOP(=O)(CC(=O)NNC(=O)N1Cc2ccccc2Oc2ccc(Cl)cc21)OCC [Example 20, 8-chlorodibenz[b,f][1,4]oxazepine-10(11H)-carboxylic acid, 2-[(diethoxyphosphinyl)acetyl]hydrazide]	0.794	Active	Example 20>Example 27>Example 12>Example 11>Example 28; also recorded: the most potent compound of the invention tested	ED50 (mice; [5]): 8.2 mg/kg; ED50 (mice; Mus musculus, sc, read-out: PBQ writhing assay ED50, S.C.): 7.1 mg/kg
